Like-named read-outs stand apart in the source and are kept apart here.

In general, IC50 refers to the concentration that inhibits the measured activity by half.

The target of this assay is recombinant human NF-kappaB-inducing kinase (NIK/MAP3K14) (Homo sapiens, UniProt Q99558). Description: Biological Assay B: inhibition of auto-phosphorylation of recombinant human NIK/MAP3K14 (AlphaScreen), performed at 2 locations. It is filed as biochemical. The following applies: averaged values. Here is the method:
Inhibition of Auto-Phosphorylation of Recombinant Human NF-kappaB-Inducing Kinase (NIK/MAP3K14) Activity (AlphaScreen®)
NIK/MAP3K14 auto-phosphorylation activity was measured using the AlphaScreen® (αscreen) format (Perkin Elmer). All compounds tested were dissolved in dimethyl sulfoxide (DMSO) and further dilutions were made in assay buffer. Final DMSO concentration was 1% (v/v) in assays. Assay buffer was 50 mM Tris pH 7.5 containing 1 mM EGTA (ethylene glycol tetraacetic acid), 1 mM DTT (dithiothreitol), 0.1 mM Na3VO4, 5 mM MgCl2, 0.01% Tween® 20. Assays were carried out in 384 well Alphaplates (Perkin Elmer). Incubations consisted of compound, 25 microM Adenosine-5′-triphosphate (ATP), and 0.2 nM NIK/MAP3K14. Incubations were initiated by addition of GST-tagged NIK/MAP3K14 enzyme, carried out for 1 h at 25° C. and terminated by addition of stop buffer containing anti-phospho-IKK Ser176/180 antibody. Protein A Acceptor and Glutathione-Donor beads were added before reading using an EnVision® Multilabel Plate Reader (Perkin Elmer). Signal obtained in the wells containing blank samples was subtracted from all other wells and IC50's were determined by fitting a sigmoidal curve to % inhibition of control versus Log10 compound concentration.
Assay B was performed at 2 different locations.
Data for the compounds of the invention in the above assays are provided in Table A (the values in Table are averaged values over all measurements on all batches of a compound; values as IC50 (nM)). (‘n.c.’ means not calculated: ‘Co.’ means compound)
Background: In Alpha technology, singlet oxygen from a donor bead excites a nearby acceptor bead.

Where [1] appears, read: location 1, AlphaScreen auto-phosphorylation, read-out: Assay B location 1 IC50.
Setting [2] is: location 2, AlphaScreen auto-phosphorylation, read-out: Assay B location 2 IC50.

recombinant human NF-kappaB-inducing kinase (NIK/MAP3K14), sequence (Q99558 whole entry): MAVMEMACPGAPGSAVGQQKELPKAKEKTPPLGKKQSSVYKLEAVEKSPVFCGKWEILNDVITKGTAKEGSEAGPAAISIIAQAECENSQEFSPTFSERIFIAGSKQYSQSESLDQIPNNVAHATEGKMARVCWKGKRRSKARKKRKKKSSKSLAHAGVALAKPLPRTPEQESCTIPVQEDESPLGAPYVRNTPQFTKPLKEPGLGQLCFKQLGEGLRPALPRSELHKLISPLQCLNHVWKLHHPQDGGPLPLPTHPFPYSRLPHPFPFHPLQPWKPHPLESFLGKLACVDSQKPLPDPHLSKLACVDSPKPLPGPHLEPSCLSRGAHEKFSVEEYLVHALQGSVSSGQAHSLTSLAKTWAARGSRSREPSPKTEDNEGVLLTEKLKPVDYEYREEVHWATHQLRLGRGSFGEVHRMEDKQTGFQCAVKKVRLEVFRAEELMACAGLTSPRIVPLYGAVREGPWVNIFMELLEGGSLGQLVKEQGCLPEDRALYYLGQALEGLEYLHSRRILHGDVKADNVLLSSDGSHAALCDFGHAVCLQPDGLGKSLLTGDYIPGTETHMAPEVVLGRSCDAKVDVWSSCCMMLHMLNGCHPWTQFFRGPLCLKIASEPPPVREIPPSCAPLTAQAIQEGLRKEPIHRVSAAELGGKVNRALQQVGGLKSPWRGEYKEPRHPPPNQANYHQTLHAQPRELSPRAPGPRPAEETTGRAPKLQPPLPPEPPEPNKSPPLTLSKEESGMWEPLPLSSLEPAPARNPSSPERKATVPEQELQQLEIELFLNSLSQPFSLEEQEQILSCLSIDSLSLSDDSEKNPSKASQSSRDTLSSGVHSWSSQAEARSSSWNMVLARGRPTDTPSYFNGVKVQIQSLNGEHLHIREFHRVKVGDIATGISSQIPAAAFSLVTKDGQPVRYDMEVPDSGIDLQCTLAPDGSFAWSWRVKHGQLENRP

Regarding `COc1cc(N2CCC(N(C)C)CC2)c(Cl)cc1Nc1nccc(-c2cnc3c(c2)C(C)(C)CN3)n1` [Compound 330], the half-maximal inhibitory concentration (IC50) came out at 3.6 nM under setting [1] and 0.7 nM under setting [2].

As for `COc1cc(N2CC3(CCOCC3)C2)c(Cl)cc1Nc1nccc(-c2cnc3c(c2)C(C)(CO)CN3)n1` (single isomer, unassigned) [Compound 3R], the concentration for half-maximal inhibition (IC50) is, setting by setting: under setting [1], 18.3 nM; under setting [2], 5.7 nM. In the same order, the values of `COc1cccc(Cl)c1Nc1nccc(-c2cnc3c(c2)C(C)(CO)CN3)n1` (centres unmarked) [Compound 251] are more than 10000 nM and 6760 nM.

On to `CCN1CCN(c2cc(OC)c(Nc3nccc(-c4cnc5c(c4)C(C)(CO)CN5)n3)cc2Cl)CC1` (single isomer, unassigned) [Compound 295], for which the concentration for half-maximal inhibition (IC50) reads like this: under setting [1], 12.3 nM; under setting [2], 5.1 nM. `COc1cccc(Nc2nccc(-c3cnc4c(c3)C(C)(CO)CN4)n2)c1` (centres unmarked) [Compound 168]: under setting [2], the IC50 is 3.6 nM. Still for that read-out and setting: the result for `COc1cc(-n2cncn2)ccc1Nc1nccc(-c2cnc3c(c2)C(C)(CO)CN3)n1` (centres unmarked) [Compound 207] reads 16.6 nM.

Regarding `COc1cc(Nc2nccc(-c3cnc4c(c3)C(C)(CO)CN4)n2)cc(C(F)(F)F)c1` (centres unmarked) [Compound 193], under setting [2], the concentration for half-maximal inhibition (IC50) was determined as 22.9 nM. For the compound `COc1cc(N2CC3(CCOCC3)C2)c(F)cc1Nc1nccc(-c2cnc3c(c2)C(C)(CO)CN3)n1` (single isomer, unassigned) [Compound 7S], the IC50 turned out to be 7.8 nM under setting [1] and 1.6 nM under setting [2]. On to `CCOc1ccccc1Nc1nccc(-c2cnc3c(c2)C(C)(CO)CN3)n1` (centres unmarked) [Compound 174], for which the IC50 under setting [2] worked out at 32.4 nM. Same read-out and setting: the result for `COc1cc(Cn2cccn2)ccc1Nc1nccc(-c2cnc3c(c2)C(C)(CO)CN3)n1` (centres unmarked) [Compound 189] reads 6.9 nM.

As to `COc1cccc(Nc2nccc(-c3cnc4c(c3)C(C)(CO)CN4)n2)c1Cl` (centres unmarked) [Compound 225], the IC50 is, setting by setting: under setting [1], 13.2 nM; under setting [2], 10.2 nM.

With `COc1cc(C#N)c(C)c(Nc2nccc(-c3cnc4c(c3)C(C)(CO)CN4)n2)c1` (centres unmarked) [Compound 226], the IC50 under setting [1] is 7.4 nM and the 50% inhibitory concentration (IC50) under setting [2] amounted to 4.1 nM. As to `Cc1cc(N2CCOCC2)ccc1Nc1nccc(-c2cnc3c(c2)C(C)(CO)CN3)n1` (centres unmarked) [Compound 216], under setting [2], the IC50 was 47.9 nM.

Consider `COCCN(C)c1cc(OC)c(Nc2nccc(-c3cnc4c(c3)C(C)(CO)CN4)n2)cc1Cl` (centres unmarked) [Compound 5], for which the concentration for half-maximal inhibition (IC50) runs as follows: under setting [1], 6.3 nM; under setting [2], 4.1 nM. The like results for `CC1(CO)CNc2ncc(-c3ccnc(Nc4cc(F)c(N5CCOCC5)cc4Cl)n3)cc21` (single isomer, unassigned) [Compound 261] were, in that order, 8.3 nM and 7.2 nM. Consider `COCCN(C)c1cc(OC)c(Nc2nccc(-c3cnc4c(c3)C(C)(CO)CN4)n2)cc1Cl` (single isomer, unassigned) [Compound 5S], for which, under setting [2], the IC50 is 1.6 nM. Consider `COc1cc(N2CCOCC2)c(F)cc1Nc1nccc(-c2cnc3c(c2)C(C)(C)CN3)n1` [Compound 282], for which the IC50 by setting is: under setting [1], 77.6 nM; under setting [2], 13.8 nM. In the same order, the values of `CC1(CO)CNc2ncc(-c3ccnc(Nc4cc(F)c(N5CCOCC5)cc4Cl)n3)cc21` (single isomer, unassigned) [Compound 263] are 129 nM and 53.7 nM. In the same order, the values of `CC1(CO)CNc2ncc(-c3ccnc(Nc4cc(C#N)c(N5CCOCC5)cc4Cl)n3)cc21` (centres unmarked) [Compound 364] are 10.2 nM and 6.9 nM.

Regarding `COc1cc(C(=O)NC2CCOCC2)ccc1Nc1ncc(Cl)c(-c2cnc3c(c2)C(C)(CO)CN3)n1` (single isomer, unassigned) [Compound 351], for the setting “location 1, NIK auto-phosphorylation, AlphaScreen, read-out: Assay B location 1 IC50”, the IC50 amounted to 24 nM. `CC1(CO)CNc2ncc(-c3ccnc(Nc4cc(Cl)c(N5CCOCC5)cc4Cl)n3)cc21` (single isomer, unassigned) [Compound 266]: the IC50 is, setting by setting: under setting [1], 5 nM; under setting [2], 1.9 nM. Take `CC1(C)CNc2ncc(-c3ccnc(Nc4ccc(C(=O)NC5CNC5)cc4)n3)cc21` [Compound 34]: the IC50 under setting [2] was determined as 1.6 nM.

On to `Cc1ccc(C#N)cc1Nc1nccc(-c2cnc3c(c2)C(C)(CO)CN3)n1` (centres unmarked) [Compound 208], for which the IC50 under setting [2] amounted to 5 nM. The same measure, in the same setting: the result for `COc1cc(-c2ccnn2C)ccc1Nc1nccc(-c2cnc3c(c2)C(C)(CO)CN3)n1` (centres unmarked) [Compound 203] reads 30.9 nM. For `CC1(CO)CNc2ncc(-c3ccnc(Nc4ccccc4OC4CCOCC4)n3)cc21` (centres unmarked) [Compound 247], the IC50 came out at 38 nM under setting [1] and 22.4 nM under setting [2].

Consider `COc1ccc(C(F)(F)F)cc1Nc1nccc(-c2cnc3c(c2)C(C)(CO)CN3)n1` (centres unmarked) [Compound 173], for which the half-maximal inhibitory concentration (IC50) under setting [2] is 10 nM.

On to `COc1cc(C(=O)N2CCC(OC)C2)c(Cl)cc1Nc1nccc(-c2cnc3c(c2)C(C)(C)CN3)n1` (centres unmarked) [Compound 292], for which the half-inhibitory concentration (IC50) is, setting by setting: under setting [1], 4.3 nM; under setting [2], 1.6 nM. The like results for `COc1cc(CN2CCOCC2)c(Cl)cc1Nc1nccc(-c2cnc3c(c2)C(C)(CO)CN3)n1` (centres unmarked) [Compound 324] were, in that order, 7.9 nM and 3.8 nM. On to `COc1cc(C2COCCN2C)ccc1Nc1nccc(-c2cnc3c(c2)C(C)(CO)CN3)n1` (centres unmarked) [Compound 200], for which the IC50 under setting [2] worked out at 132 nM. `COc1cc(OCC(=O)N(C)C)c(Cl)cc1Nc1nccc(-c2cnc3c(c2)C(C)(CO)CN3)n1` (centres unmarked) [Compound 322]: the IC50 under setting [2] turned out to be 1.7 nM. Take `COc1cc(N)c(Cl)cc1Nc1nccc(-c2cnc3c(c2)C(C)(CO)CN3)n1` (centres unmarked) [Compound 11]: the IC50 reads like this: under setting [1], 6.2 nM; under setting [2], 0.7 nM.

`COc1cc(N2CCOCC2)c(F)cc1Nc1nccc(-c2cnc3c(c2)C(C)(CO)CN3)n1` (single isomer, unassigned) [Compound 253]: the IC50 is, setting by setting: under setting [1], 102 nM; under setting [2], 42.7 nM. In the case of `Cc1ccc(F)cc1Nc1nccc(-c2cnc3c(c2)C(C)(CO)CN3)n1` (centres unmarked) [Compound 198], under setting [2], the IC50 amounted to 8.5 nM.

For `COc1ccc(Cl)cc1Nc1nccc(-c2cnc3c(c2)C(C)(CO)CN3)n1` (centres unmarked) [Compound 183], the half-inhibitory concentration (IC50) under setting [2] is 1.4 nM. For `COc1cc(N2CCC(O)CC2)c(Cl)cc1Nc1nccc(-c2cnc3c(c2)C(C)(C)CN3)n1` [Compound 336], the concentration for half-maximal inhibition (IC50) (location 2, NIK auto-phosphorylation, AlphaScreen, read-out: Assay B location 2 IC50) was 3.6 nM. Turning to `COc1cc(N2CCC(O)C2)c(Cl)cc1Nc1nccc(-c2cnc3c(c2)C(C)(CO)CN3)n1` (centres unmarked) [Compound 325], the half-inhibitory concentration (IC50) under setting [2] was found to be 3.6 nM.

Consider `CCN1CCN(c2cc(OC)c(Nc3nccc(-c4cnc5c(c4)C(C)(CO)CN5)n3)cc2Cl)CC1` (centres unmarked) [Compound 268], for which the 50% inhibitory concentration (IC50) runs as follows: under setting [1], 4.5 nM; under setting [2], 0.7 nM. The like results for `CC1(CO)CNc2ncc(-c3ccnc(Nc4cc(F)c(N5CCOCC5)cc4Cl)n3)cc21` (centres unmarked) [Compound 365] were, in that order, 13.8 nM and 11 nM. In the same order, the values of `Cc1cc(N2CC3(CCOCC3)C2)c(F)cc1Nc1nccc(-c2cnc3c(c2)C(C)(CO)CN3)n1` (centres unmarked) [Compound 281] are 15.9 nM and 3 nM. With `CC1(CO)CNc2ncc(-c3ccnc(Nc4cc(C#N)ccc4Cl)n3)cc21` (centres unmarked) [Compound 205], the concentration for half-maximal inhibition (IC50) under setting [2] is 5.1 nM.

As for `COc1cc(N2CCOCC2)c(C#N)cc1Nc1nccc(-c2cnc3c(c2)C(C)(CO)CN3)n1` (single isomer, unassigned) [Compound 4R], the IC50 is, setting by setting: under setting [1], 55 nM; under setting [2], 36.3 nM.

As for `CC1(CO)CNc2ncc(-c3ccnc(Nc4cc(C#N)c(N5CCOCC5)cc4Cl)n3)cc21` (single isomer, unassigned) [Compound 260], the half-maximal inhibitory concentration (IC50) came out at 117 nM under setting [1] and 70.8 nM under setting [2].
